Laboratory results reported in PubChem BioAssay (NCI).
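GI50: concentration for 50% inhibition of growth. The concentration for full growth arrest is given as TGI.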

What was measured:
Assay in all cases: NCI tumour cell line growth inhibition, 384-well format
OVCAR-3 ovarian = tested on: OVCAR-3 ovarian
OVCAR-8 ovarian = tested on: OVCAR-8 ovarian
DU-145 prostate = tested on: DU-145 prostate
MDA-MB-468 breast = tested on: MDA-MB-468 breast
SF-268 CNS = tested on: SF-268 CNS
SW-620 colon = tested on: SW-620 colon
SF-295 CNS = tested on: SF-295 CNS
MALME-3M melanoma = tested on: MALME-3M melanoma
HS 578T breast = tested on: HS 578T breast
RPMI-8226 leukemia = tested on: RPMI-8226 leukemia
NCI/ADR-RES ovarian = tested on: NCI/ADR-RES ovarian
EKVX NSCLC = tested on: EKVX NSCLC
SF-539 CNS = tested on: SF-539 CNS
NCI-H522 lung = tested on: NCI-H522 lung
NCI-H322M lung = tested on: NCI-H322M lung
CCRF-CEM leukemia = tested on: CCRF-CEM leukemia
HCT-116 colon = tested on: HCT-116 colon
HT29 colon = tested on: HT29 colon
HOP-92 NSCLC = tested on: HOP-92 NSCLC
BT-549 breast = tested on: BT-549 breast
UO-31 renal = tested on: UO-31 renal
COLO 205 colon = tested on: COLO 205 colon
HCT-15 colon = tested on: HCT-15 colon
A549 NSCLC = tested on: A549 NSCLC
T-47D breast = tested on: T-47D breast
MOLT-4 leukemia = tested on: MOLT-4 leukemia
OVCAR-4 ovarian = tested on: OVCAR-4 ovarian
M14 melanoma = tested on: M14 melanoma
UACC-62 melanoma = tested on: UACC-62 melanoma

`Cc1ccc(-n2nc(C(C)(C)C)cc2NC(=O)NCc2cc(F)ccc2Oc2ccc3c(cnn3CCO)c2)cc1` gave a GI50 (OVCAR-3 ovarian) of 8.85 µM, a TGI (OVCAR-3 ovarian) of 24.3 µM and a GI50 (OVCAR-8 ovarian) of 13 µM. The TGI (OVCAR-8 ovarian) was over 100 µM, the GI50 (DU-145 prostate) was 15 µM and the TGI (DU-145 prostate) was over 100 µM. The GI50 (MDA-MB-468 breast) was 4.56 µM, the TGI (MDA-MB-468 breast) was 15 µM and the GI50 (SF-268 CNS) was 0.0455 µM. The TGI (SF-268 CNS) was 1.62 µM, the GI50 (SW-620 colon) was 10.5 µM and the TGI (SW-620 colon) was over 100 µM. For the same molecule, the GI50 (SF-295 CNS) was 18 µM, the TGI (SF-295 CNS) was over 100 µM and the GI50 (MALME-3M melanoma) was 0.357 µM. The TGI (MALME-3M melanoma) was 1.49 µM, the GI50 (HS 578T breast) was 2.63 µM and the TGI (HS 578T breast) was 15.6 µM. The GI50 (RPMI-8226 leukemia) was 4.07 µM, the TGI (RPMI-8226 leukemia) was 32 µM and the GI50 (NCI/ADR-RES ovarian) was 7.83 µM. It also gave a TGI (NCI/ADR-RES ovarian) of 66.4 µM, a GI50 (EKVX NSCLC) of 4.58 µM and a TGI (EKVX NSCLC) of 27.7 µM. It also gave a GI50 (SF-539 CNS) of 2.72 µM, a TGI (SF-539 CNS) of 28.6 µM and a GI50 (NCI-H522 lung) of 3.91 µM. It also gave a TGI (NCI-H522 lung) of 17.1 µM, a GI50 (NCI-H322M lung) of 6.36 µM and a TGI (NCI-H322M lung) of over 100 µM. For the same molecule, the GI50 (CCRF-CEM leukemia) was 4.51 µM, the TGI (CCRF-CEM leukemia) was 16.7 µM and the GI50 (HCT-116 colon) was 3.13 µM. It also gave a TGI (HCT-116 colon) of 16 µM, a GI50 (HT29 colon) of 1.86 µM and a TGI (HT29 colon) of 13.8 µM. The GI50 (HOP-92 NSCLC) was 4.1 µM, the TGI (HOP-92 NSCLC) was 29.8 µM and the GI50 (BT-549 breast) was 4.9 µM. For the same molecule, the TGI (BT-549 breast) was 27.2 µM, the GI50 (UO-31 renal) was 3.16 µM and the TGI (UO-31 renal) was 20.8 µM. For the same molecule, the GI50 (COLO 205 colon) was 1.26 µM, the TGI (COLO 205 colon) was 12.3 µM and the GI50 (HCT-15 colon) was 5.14 µM. It also gave a TGI (HCT-15 colon) of over 100 µM, a GI50 (A549 NSCLC) of 7.81 µM and a TGI (A549 NSCLC) of over 100 µM. It also gave a GI50 (T-47D breast) of 1.82 µM, a TGI (T-47D breast) of 8.64 µM and a GI50 (MOLT-4 leukemia) of 1.9 µM. It also gave a TGI (MOLT-4 leukemia) of 5.02 µM, a GI50 (OVCAR-4 ovarian) of 12.5 µM and a TGI (OVCAR-4 ovarian) of 31.8 µM. It also gave a GI50 (M14 melanoma) of 0.427 µM, a TGI (M14 melanoma) of 3.11 µM and a GI50 (UACC-62 melanoma) of 0.665 µM.
